Measured values reported in patent publication US20230233569A1 (Revolution Medicines, Inc., priority 2020, published 2023).
Like-named read-outs stand apart in the source and are kept apart here.

Tests used:
Capan-1 (K-Ras G12V) = experiment: CellTiter-Glo cell viability assay, 5-day treatment; assay type: cell-based; conditions: Homo sapiens, CAPAN-1, 120 h, 5-day treatment; read-out: Capan-1 Cell Viability assay data (K-Ras G12V, IC50)
Procedure, shortened: (§1)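 Viability is read as luminescence on day 5 after direct compound addition to plated cells, following about 30 minutes' room-temperature equilibration. Each signal is scaled to mean DMSO as 100%.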

NCI-H358 (K-Ras G12C) = experiment: as above; assay type: cell-based; conditions: Homo sapiens, NCI-H358, 120 h, 5-day treatment; read-out: H358 Cell Viability assay data (K-Ras G12C, IC50)
Procedure, shortened: as §1

KRAS G12C = KRAS G12C (Homo sapiens, UniProt P01116+P62937, G12C); experiment: Disruption of BRAF RBD interaction with Ras (FRET / MOA assay, with Cyclophilin A); assay type: biochemical
KRAS G12C, sequence (P01116 1-169 isoform P01116-2 G12C): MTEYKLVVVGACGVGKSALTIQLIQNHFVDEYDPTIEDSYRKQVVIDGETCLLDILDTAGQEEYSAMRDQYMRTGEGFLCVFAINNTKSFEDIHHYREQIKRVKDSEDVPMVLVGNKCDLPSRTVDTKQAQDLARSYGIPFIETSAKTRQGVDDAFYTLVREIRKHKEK
KRAS G12C, sequence (P62937 whole entry): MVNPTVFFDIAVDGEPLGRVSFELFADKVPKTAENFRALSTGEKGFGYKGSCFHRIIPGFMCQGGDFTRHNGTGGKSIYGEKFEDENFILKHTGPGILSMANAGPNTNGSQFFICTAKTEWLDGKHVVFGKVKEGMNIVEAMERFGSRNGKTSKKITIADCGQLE
Procedure, shortened: (§2)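 First, compounds at a ten-point threefold dilution series (highest final concentration 30 μM) were incubated with nucleotide-loaded K-Ras, Cyclophilin A and BRAF RBD for 3 h at 25 °C. Next, detection antibodies were added for 1.5 h. Finally, IC50 was calculated from TR-FRET ratio decreases against DMSO controls.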

KRAS G12D = KRAS G12D (Homo sapiens, UniProt P01116+P62937, G12D); experiment: as above; assay type: biochemical
KRAS G12D, sequence (P01116 1-169 isoform P01116-2 G12D limits assumed): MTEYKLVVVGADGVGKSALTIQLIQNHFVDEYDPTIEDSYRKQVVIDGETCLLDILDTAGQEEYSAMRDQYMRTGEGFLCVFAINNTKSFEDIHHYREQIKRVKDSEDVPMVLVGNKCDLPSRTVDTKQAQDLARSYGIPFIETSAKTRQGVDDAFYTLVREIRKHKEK
KRAS G12D, sequence (P62937 whole entry): as the sequence (P62937 whole entry) above
Procedure, shortened: as §2

KRAS G12S = KRAS G12S (Homo sapiens, UniProt P01116+P62937, G12S); experiment: as above; assay type: biochemical
KRAS G12S, sequence (P01116 1-169 isoform P01116-2 G12S limits assumed): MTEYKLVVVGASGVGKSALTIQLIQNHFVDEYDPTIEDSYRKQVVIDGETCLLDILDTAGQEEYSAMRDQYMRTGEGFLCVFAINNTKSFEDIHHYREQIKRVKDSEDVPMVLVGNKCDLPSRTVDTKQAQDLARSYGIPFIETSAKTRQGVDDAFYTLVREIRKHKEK
KRAS G12S, sequence (P62937 whole entry): as the sequence (P62937 whole entry) above
Procedure, shortened: as §2

KRAS G12V = KRAS G12V (Homo sapiens, UniProt P01116+P62937, G12V); experiment: as above; assay type: biochemical
KRAS G12V, sequence (P01116 1-169 isoform P01116-2 G12V limits assumed): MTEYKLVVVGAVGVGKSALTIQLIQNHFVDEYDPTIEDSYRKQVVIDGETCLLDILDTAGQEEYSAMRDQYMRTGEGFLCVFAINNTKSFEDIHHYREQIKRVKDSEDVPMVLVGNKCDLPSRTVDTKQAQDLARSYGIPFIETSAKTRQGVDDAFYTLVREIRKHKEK
KRAS G12V, sequence (P62937 whole entry): as the sequence (P62937 whole entry) above
Procedure, shortened: as §2

KRAS G13C = KRAS G13C (Homo sapiens, UniProt P01116+P62937, G13C); experiment: as above; assay type: biochemical
KRAS G13C, sequence (P01116 1-169 isoform P01116-2 G13C): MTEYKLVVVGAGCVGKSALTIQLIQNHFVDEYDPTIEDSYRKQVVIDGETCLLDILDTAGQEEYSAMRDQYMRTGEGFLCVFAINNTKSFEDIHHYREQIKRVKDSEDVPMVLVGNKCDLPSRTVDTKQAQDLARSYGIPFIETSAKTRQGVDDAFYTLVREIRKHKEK
KRAS G13C, sequence (P62937 whole entry): as the sequence (P62937 whole entry) above
Procedure, shortened: as §2

KRAS G13D = KRAS G13D (Homo sapiens, UniProt P01116+P62937, G13D); experiment: as above; assay type: biochemical
KRAS G13D, sequence (P01116 1-169 isoform P01116-2 G13D limits assumed): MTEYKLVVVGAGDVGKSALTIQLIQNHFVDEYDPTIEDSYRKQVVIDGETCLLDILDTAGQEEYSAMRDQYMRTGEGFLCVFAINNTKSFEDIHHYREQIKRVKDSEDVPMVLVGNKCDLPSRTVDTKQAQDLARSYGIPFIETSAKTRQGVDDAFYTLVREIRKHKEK
KRAS G13D, sequence (P62937 whole entry): as the sequence (P62937 whole entry) above
Procedure, shortened: as §2

KRAS WT = KRAS WT (Homo sapiens, UniProt P01116+P62937); experiment: as above; assay type: biochemical
KRAS WT, sequence (P01116 1-169 isoform P01116-2 limits assumed): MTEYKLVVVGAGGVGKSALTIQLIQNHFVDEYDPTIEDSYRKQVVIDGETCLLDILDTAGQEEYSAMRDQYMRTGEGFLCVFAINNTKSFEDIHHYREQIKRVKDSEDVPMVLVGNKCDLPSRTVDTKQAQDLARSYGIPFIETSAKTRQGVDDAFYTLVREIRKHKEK
KRAS WT, sequence (P62937 whole entry): as the sequence (P62937 whole entry) above
Procedure, shortened: as §2

NRAS G12C = NRAS G12C (Homo sapiens, UniProt P01111+P62937, G12C); experiment: as above; assay type: biochemical
NRAS G12C, sequence (P01111 whole entry G12C): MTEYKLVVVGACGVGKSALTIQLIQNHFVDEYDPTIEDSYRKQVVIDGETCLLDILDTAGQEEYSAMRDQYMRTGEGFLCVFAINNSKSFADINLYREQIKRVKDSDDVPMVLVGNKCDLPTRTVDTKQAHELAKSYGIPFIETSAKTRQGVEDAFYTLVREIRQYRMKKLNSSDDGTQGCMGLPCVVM
NRAS G12C, sequence (P62937 whole entry): as the sequence (P62937 whole entry) above

KRAS Q61H = KRAS Q61H (Homo sapiens, UniProt P01116+P62937, Q61H); experiment: as above; assay type: biochemical; conditions: KRAS Q61H; read-out: KRAS Q61H FRET data IC50
KRAS Q61H, sequence (P01116 1-169 isoform P01116-2 Q61H limits assumed): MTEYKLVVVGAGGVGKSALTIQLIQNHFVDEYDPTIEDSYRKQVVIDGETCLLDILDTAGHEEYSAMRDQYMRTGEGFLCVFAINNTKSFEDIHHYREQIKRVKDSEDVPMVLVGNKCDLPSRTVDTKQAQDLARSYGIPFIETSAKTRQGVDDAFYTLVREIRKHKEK
KRAS Q61H, sequence (P62937 whole entry): as the sequence (P62937 whole entry) above
Procedure, shortened: (§3)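 TR-FRET in 25 mM HEPES pH 7.3, 100 mM NaCl, 5 mM MgCl2, 0.1% BSA: 25 μM Cyclophilin A, 12.5 nM His6-Ras-GMPPNP, 50 nM GST-BRAF RBD with compound (10-point 3-fold series from 30 μM), 3 h at 25° C. Anti-His Eu/anti-GST APC added, 1.5 h more; IC50 from decreased FRET ratio versus DMSO.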

NRAS Q61K = NRAS Q61K (Homo sapiens, UniProt P01111+P62937, Q61K); experiment: as above; assay type: biochemical; conditions: NRAS Q61K; read-out: NRAS Q61K FRET data IC50
NRAS Q61K, sequence (P01111 whole entry Q61K): as the sequence (P01111 whole entry G12C) above, with C12G, Q61K counted along it
NRAS Q61K, sequence (P62937 whole entry): as the sequence (P62937 whole entry) above
Procedure, shortened: as §3

NRAS Q61R = NRAS Q61R (Homo sapiens, UniProt P01111+P62937, Q61R); experiment: as above; assay type: biochemical; conditions: NRAS Q61R; read-out: NRAS Q61R FRET data IC50
NRAS Q61R, sequence (P01111 whole entry Q61R): as the sequence (P01111 whole entry G12C) above, with C12G, Q61R counted along it
NRAS Q61R, sequence (P62937 whole entry): as the sequence (P62937 whole entry) above
Procedure, shortened: as §3

NRAS WT = NRAS WT (Homo sapiens, UniProt P01111+P62937); experiment: as above; assay type: biochemical; conditions: NRAS WT; read-out: NRAS WT FRET data IC50
NRAS WT, sequence (P01111 whole entry): as the sequence (P01111 whole entry G12C) above, with C12G counted along it
NRAS WT, sequence (P62937 whole entry): as the sequence (P62937 whole entry) above
Procedure, shortened: as §3

[1] = read-out: KRAS G12C FRET data, IC50
[2] = read-out: KRAS G12D FRET data, IC50
[3] = read-out: KRAS G12S FRET data, IC50
[4] = KRAS G12V, read-out: KRAS G12V FRET data IC50
[5] = read-out: KRAS G13C FRET data, IC50
[6] = KRAS G13D, read-out: KRAS G13D FRET data IC50
[7] = KRAS WT, read-out: KRAS WT FRET data IC50
[8] = NRAS G12C, read-out: NRAS G12C FRET data IC50

Structure (SMILES)	IC50 (Capan-1 (K-Ras G12V)) [nM]	IC50 (NCI-H358 (K-Ras G12C)) [nM]	IC50 (KRAS Q61H) [nM]	IC50 (NRAS Q61K) [nM]	IC50 (NRAS Q61R) [nM]	IC50 (NRAS WT) [nM]	IC50 (KRAS G12C; [1]) [nM]	IC50 (KRAS G12D; [2]) [nM]	IC50 (KRAS G12S; [3]) [nM]	IC50 (KRAS G12V; [4]) [nM]	IC50 (KRAS G13C; [5]) [nM]	IC50 (KRAS G13D; [6]) [nM]	IC50 (KRAS WT; [7]) [nM]	IC50 (NRAS G12C; [8]) [nM]	further results
CCn1c(-c2cccnc2[C@H](C)OC)c2c3cc(ccc31)-c1csc(n1)C[C@H](NC(=O)[C@H](C(C)C)N(C)C(=O)N1CCOC[C@@H]1CN(C)C)C(=O)N1CCC[C@H](N1)C(=O)OCC(C)(C)C2 [Example A572]	1000 to 10000	100 to 1000	100 to 1000	1000 to 10000	1000 to 10000	1000 to 10000	–	–	–	–	–	–	–	–	IC50 (KRAS G12C; KRAS G12C FRET data, IC50): 1000 to 10000 nM; IC50 (KRAS G12D; KRAS G12D FRET data, IC50): 1000 to 10000 nM; IC50 (KRAS G12S; KRAS G12S FRET data, IC50): 1000 to 10000 nM; IC50 (KRAS G12V; KRAS G12V FRET data IC50, KRAS G12V): 1000 to 10000 nM; IC50 (KRAS G13C; KRAS G13C FRET data, IC50): 1000 to 10000 nM; IC50 (KRAS G13D; KRAS G13D FRET data IC50, KRAS G13D): 1000 to 10000 nM; IC50 (KRAS WT; KRAS WT FRET data IC50, KRAS WT): 1000 to 10000 nM; IC50 (NRAS G12C; NRAS G12C FRET data IC50, NRAS G12C): 1000 to 10000 nM
CCn1c(-c2cccnc2[C@H](C)OC)c2c3cc(ccc31)-c1csc(n1)C[C@H](NC(=O)[C@H](C(C)C)N(C)C(=O)N1CC3(CC3)C1)C(=O)N1CCC[C@H](N1)C(=O)OCC(C)(C)C2 (atropisomer, axis not shown) [Example A523]	10 to 100	10 to 100	10 to 100	10 to 100	100 to 1000	100 to 1000	10 to 100	100 to 1000	100 to 1000	100 to 1000	100 to 1000	100 to 1000	100 to 1000	10 to 100	–
CCn1c(-c2cccnc2[C@H](C)OC)c2c3cc(ccc31)-c1csc(n1)C[C@H](NC(=O)[C@H](C(C)C)N(C)C(=O)N1CC[C@]3(CCN(C)C3=O)C1)C(=O)N1CCC[C@H](N1)C(=O)OCC(C)(C)C2 (single isomer, unassigned) [Example A461]	100 to 1000	100 to 1000	100 to 1000	100 to 1000	100 to 1000	1000 to 10000	100 to 1000	1000 to 10000	1000 to 10000	1000 to 10000	1000 to 10000	1000 to 10000	100 to 1000	100 to 1000	–
CCn1c(-c2cccnc2[C@H](C)OC)c2c3cc(ccc31)-c1csc(n1)C[C@H](NC(=O)[C@H](C(C)C)N(C)C(=O)N1C[C@H](N)[C@@H](F)C1)C(=O)N1CCC[C@H](N1)C(=O)OCC(C)(C)C2 (atropisomer, axis not shown) [Example A567]	100 to 1000	10 to 100	10 to 100	10 to 100	100 to 1000	100 to 1000	10 to 100	100 to 1000	100 to 1000	100 to 1000	100 to 1000	100 to 1000	100 to 1000	10 to 100	–
CCn1c(-c2cccnc2[C@H](C)OC)c2c3cc(ccc31)-c1csc(n1)C[C@H](NC(=O)[C@H](C(C)C)N(C)C(=O)N1CC([C@H](C)OC)C1)C(=O)N1CCC[C@H](N1)C(=O)OCC(C)(C)C2 (atropisomer, axis not shown) [Example A279]	10 to 100	10 to 100	10 to 100	10 to 100	10 to 100	10 to 100	10 to 100	100 to 1000	100 to 1000	10 to 100	100 to 1000	100 to 1000	100 to 1000	10 to 100	–
CCn1c(-c2cc(N3CCN(C)CC3)cnc2[C@H](C)OC)c2c3cc(ccc31)-c1csc(n1)C[C@H](NC(=O)[C@H](C(C)C)N(C)C(=O)N1CCC13CCN(C)CC3)C(=O)N1CCC[C@H](N1)C(=O)OCC(C)(C)C2 (atropisomer, axis not shown) [Example A483]	10 to 100	< 10	10 to 100	10 to 100	10 to 100	10 to 100	10 to 100	10 to 100	10 to 100	100 to 1000	100 to 1000	100 to 1000	10 to 100	10 to 100	–
CCn1c(-c2cccnc2[C@H](C)OC)c2c3cc(ccc31)-c1csc(n1)C[C@H](NC(=O)[C@H](C(C)C)N(C)C(=O)N1CCC13CCN(C)CC3)C(=O)N1CCC[C@H](N1)C(=O)OCC(C)(C)C2 [Example A273]	100 to 1000	10 to 100	10 to 100	100 to 1000	100 to 1000	10 to 100	10 to 100	100 to 1000	10 to 100	100 to 1000	100 to 1000	100 to 1000	100 to 1000	10 to 100	–
CCn1c(-c2cccnc2[C@H](C)OC)c2c3cc(ccc31)-c1csc(n1)C[C@H](NC(=O)[C@H](C(C)C)N(C)C(=O)N1C[C@H]3OCCN(C)[C@H]3C1)C(=O)N1CCC[C@H](N1)C(=O)OCC(C)(C)C2 (atropisomer, axis not shown) [Example A451]	10 to 100	10 to 100	100 to 1000	10 to 100	100 to 1000	100 to 1000	100 to 1000	1000 to 10000	100 to 1000	100 to 1000	100 to 1000	1000 to 10000	100 to 1000	100 to 1000	–
CCn1c(-c2cccnc2[C@H](C)OC)c2c3cc(ccc31)-c1csc(n1)C[C@H](NC(=O)[C@H](C(C)C)N(C)C(=O)N1CC([C@H](C)CO)C1)C(=O)N1CCC[C@H](N1)C(=O)OCC(C)(C)C2 (atropisomer, axis not shown) [Example A478]	10 to 100	< 10	10 to 100	10 to 100	100 to 1000	10 to 100	10 to 100	100 to 1000	100 to 1000	100 to 1000	100 to 1000	100 to 1000	100 to 1000	10 to 100	–
CCn1c(-c2cccnc2[C@H](C)OC)c2c3cc(ccc31)-c1csc(n1)C[C@H](NC(=O)[C@H]1CCCO1)C(=O)N1CCC[C@H](N1)C(=O)OCC(C)(C)C2 (atropisomer, axis not shown) [Example A315]	100 to 1000	100 to 1000	100 to 1000	100 to 1000	1000 to 10000	100 to 1000	100 to 1000	1000 to 10000	100 to 1000	100 to 1000	100 to 1000	100 to 1000	100 to 1000	100 to 1000	–
CCn1c(-c2cccnc2[C@H](C)OC)c2c3cc(ccc31)-c1csc(n1)C[C@H](NC(=O)[C@H](C(C)C)N(C)C(=O)N1CCN3CCOC[C@@H]3C1)C(=O)N1CCC[C@H](N1)C(=O)OCC(C)(C)C2 [Example A547]	10 to 100	10 to 100	100 to 1000	100 to 1000	100 to 1000	100 to 1000	100 to 1000	1000 to 10000	100 to 1000	100 to 1000	100 to 1000	1000 to 10000	100 to 1000	100 to 1000	–
